Laboratory results reported in paper PMC7369637, “Inhibition of Resistance-Refractory P. falciparum Kinase PKG Delivers Prophylactic, Blood Stage, and Transmission-Blocking Antiplasmodial Activity” (Cell Chemical Biology, 2020).
Where two headings read alike, the source gives them in different places.

How the values were obtained:
[1] = test system: recombinant TKL3 kinase domain; assay: Radioactive in vitro kinase assay with recombinant TKL3 kinase domain; format: biochemical, Plasmodium falciparum; settings: 20 μM compound
Protocol: Recombinant proteins were expressed in E. coli as previously described ([Abdi et al., 2010]). […] The cultures were then cooled to 20°C followed by induction of protein expression with 0.5 mM IPTG and further incubation at 20°C, 200 rpm for 16 h. Cultures were harvested by centrifugation at 4000g, 4°C for 10 min. Bacterial pellets were washed once in 1× PBS and were stored at −80°C. Cell pellets were resuspended in ice-cold Lysis Buffer (50 mM sodium phosphate, pH 8.0, 400 mM NaCl, 5 % (w/v) glycerol, 0.1 % (v/v) Triton X-100, 20 mM imidazole, 2 mM β-mercaptoethanol, 1× Roche protease inhibitor cocktail EDTA-free, 1 mg/ml lysozyme). Cells were disrupted by sonication. Protein was bound on a HisTrap HP column and eluted with a linear gradient of increasing imidazole concentrations. The peak fractions as determined by A280 trace were pooled together and further purified by size exclusion chromatography on a S200 gel filtration column equilibrated in 25 mM Tris pH 7.5, 100 mM NaCl, 5 % (w/v) glycerol, 1 mM DTT. Protein was pooled and concentrated. Final concentration was determined using a Bradford assay with a BSA protein standard.
Kinase assays containing 3 μg of recombinant kinase (WT or mutant) were performed in kinase assay buffer (25 mM Hepes, pH 7.5, 2 mM MnCl2, 10 mM β-glycerophosphate, 10 mM NaF, 25 μM ATP (containing 5 μCi [γ-^32P]-ATP-3000 mCi/mmol (PerkinElmer)), 5 μg substrate myelin basic protein (MBP) and ± 20 μM inhibitor) in a final reaction volume of 20 μl and incubated at 30°C for 30 min. Reactions were stopped by the addition of 5× Laemmli sample buffer and heated to 98°C for 5 min. Proteins were resolved by 4-12 % SDS-PAGE and stained in Coomassie Brilliant Blue. Kinase activity was detected by phosphorimaging. Imaging was performed on a Typhoon 5 Biomolecular imager (GE Healthcare Life Sciences).

Pf Dd2-B2 ABS parasites = assay: 72-h asexual blood stage (ABS) growth inhibition assay, Dd2-B2; format: cell-based, Plasmodium falciparum
Protocol: Synchronicity was achieved using three rounds of sorbitol treatment on early rings, spaced 48 h apart, followed by magnetic purification of segmented schizonts following the final sorbitol treatment. Parasites were highly synchronous to within a 3 h window of development. Assays were repeated on at least three independent occasions (each with technical duplicates) and statistical significance was assessed using Mann Whitney U tests.

[2] = target: T1, cGMP-dependent protein kinase (PKG) (PF3D7_1436600) (Plasmodium falciparum, UniProt Q8I719); assay: Competitive chemoproteomics in Pf lysates (Kinobeads / bead-immobilized compound); format: binding; settings: lysates exposed to 40 μM of the same compound vs vehicle
T1 construct: The beads were incubated at 4°C for 1 h with either 0.1 ml (0.3 mg) Pf blood stage extract; endogenous in cells; host or cells: P. falciparum asexual blood-stage parasites (trophozoite stage), saponin-freed and lysed
Protocol: Parasite cultures at the trophozoite stage were harvested, washed twice in RPMI 1640 medium (Gibco), and lysed by the addition of saponin to a final concentration of 0.1% for 5 min at room temperature. Free parasites were sedimented by centrifugation (3500 rpm for 10 min), washed three times with phosphate-buffered saline, and stored at −80°C. Parasites were resuspended in cell lysis buffer (50 mM tris-HCl (pH 7.5), 5% glycerol, 1.5 mM MgCl2, 1.5 mM NaCl, 1 mM Na3PO4, 25 mM sodium fluoride, 0.8% NP-40, EDTA-free protease inhibitor cocktail tablets (Roche Diagnostics), and 1 mM DTT) and disrupted by sonication (Sonics Vibra-Cell) using two 30-s cycles on ice at half-amplitude. […]
Kinobeads were prepared by immobilizing Bis-(III) indolyl-maleimide, purvalanol B, staurosporine and CZC8004, and the analogs of PD173955, sunitinib and vandetanib on NHS-activated Sepharose 4 beads (Amersham) ([Bantscheff et al., 2007]). […] 10 samples were measured in parallel (TMT 10-plex ([Werner et al., 2014])) to generate values for the affinity of the beads to the bound proteins (“depletion” values, 4 samples) and to generate IC50 values (6 samples) in a single experiment. Apparent dissociation constants were determined after accounting for protein depletion by the beads ([Bantscheff et al., 2011]). […]

[3] = test system: early and late stage gametocytes (3D7elo1-pfs16-CBG99); assay: Gametocyte susceptibility, CBG99-luciferase assay; format: cell-based; settings: Plasmodium falciparum
Protocol: This was determined using two separate assays. The first involved MitoTracker staining and high-content imaging. Mature (stage V) gametocytes were generated from NF54 ABS cultures as described elsewhere ([Plouffe et al., 2016]). Briefly, asexual parasites were cultured at 5% hematocrit in O^+ human erythrocytes in serum-containing complete media (RPMI 1640 (Life Technologies), 0.05 mg/ml gentamicin (Life Technologies), 0.014 mg/ml hypoxanthine (Sigma), 38.4 mM HEPES (Sigma), 0.2% (w/v) sodium bicarbonate (Sigma), D-glucose 0.2% (w/v) (Sigma), 3.4 mM sodium hydroxide (Sigma), 4.3% (v/v) heat-inactivated human serum (O^+, Interstate Blood bank), and 0.2% (w/v) AlbuMAX® II (Life Technologies)). Parasites were cultured at 37 °C under low-oxygen conditions (3% O2, 5% CO2, 92% N2) and parasitemias were maintained between 0.5% and 3% in cultures with 5% hematocrit. Ring-stage parasites underwent three rounds of synchronization with 5% (w/v) D-Sorbitol (Sigma), on days -8, -6 and -4 relative to the day of initiating gametocyte production. Trophozoite-stage parasites were shaken overnight at 37°C until day -1. On day -2 only 50% of the media was exchanged to provide additional stress to cultures, whose parasitemias had typically attained 7-10%. Complete media exchange was performed daily from day -1 onwards. Stage V gametocytes were treated with 50 mM N-acetyl glucosamine (Sigma) on days 0-9. […] The second assay assessed gametocyte susceptibility using a luciferase-based assay with 3D7elo1-pfs16-CBG99 transgenic parasites ([Cevenini et al., 2014]). […] Cell viability was then evaluated by adding a non-lysing formulation of 0.5 mM D-Luciferin substrate and measuring luciferase activity for 0.5 s on a Varioskan™ Flash Multimode Reader (Thermo Scientific). The percent of viability was calculated as a function of drug concentration and IC50 values were derived by non-linear regression analysis and curve fitting (using GraphPad Prism 6.0).

T1 sequence (Q8I719 whole entry): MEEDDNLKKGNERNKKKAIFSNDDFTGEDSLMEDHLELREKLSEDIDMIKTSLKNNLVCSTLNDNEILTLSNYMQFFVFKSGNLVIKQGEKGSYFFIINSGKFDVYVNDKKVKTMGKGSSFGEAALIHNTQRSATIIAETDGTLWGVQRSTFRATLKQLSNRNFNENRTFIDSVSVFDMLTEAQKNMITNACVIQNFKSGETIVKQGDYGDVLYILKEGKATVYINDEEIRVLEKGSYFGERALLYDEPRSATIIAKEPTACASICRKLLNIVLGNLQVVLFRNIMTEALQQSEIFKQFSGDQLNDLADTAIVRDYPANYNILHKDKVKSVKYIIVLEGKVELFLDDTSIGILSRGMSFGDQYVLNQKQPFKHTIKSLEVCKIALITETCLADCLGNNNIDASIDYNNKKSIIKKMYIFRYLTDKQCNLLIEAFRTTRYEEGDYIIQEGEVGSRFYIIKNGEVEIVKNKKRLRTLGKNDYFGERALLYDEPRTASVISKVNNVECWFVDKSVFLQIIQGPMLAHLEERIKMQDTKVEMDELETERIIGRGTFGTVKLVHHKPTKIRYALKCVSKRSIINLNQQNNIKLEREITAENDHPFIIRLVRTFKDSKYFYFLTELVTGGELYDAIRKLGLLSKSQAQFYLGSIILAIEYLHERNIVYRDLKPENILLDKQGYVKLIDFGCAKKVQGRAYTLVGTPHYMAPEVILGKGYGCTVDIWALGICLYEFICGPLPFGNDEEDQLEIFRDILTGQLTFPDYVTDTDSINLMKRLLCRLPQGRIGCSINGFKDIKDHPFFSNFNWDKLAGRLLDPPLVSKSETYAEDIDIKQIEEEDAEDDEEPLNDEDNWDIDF

In the case of `CC(C)(CN)c1nc(-c2ccc(Cl)c(O)c2)c(-c2ccncc2)[nH]1` [MMV030084], the “Reduction in TKL3 kinase activity” value [1] is reported as “no reduction”, the IC50 (Pf Dd2-B2 ABS parasites; Plasmodium falciparum, DD2, 72 h, read-out: Mean IC50, 72 h ABS activity, Dd2-B2 wild-type, 72 h) is reported as 120 nM and the IC50 (Pf Dd2-B2 ABS parasites; read-out: Mean IC50, 72 h ABS activity, Dd2-B2 wild-type, 72 h) is reported as 120 nM. The “PKG pull-down by bead-bound compound” value [2] was “pulled down”, the IC50 ([3]; read-out: IC50, sexual gametocyte stage (Figure 1B)) was over 37500 nM and the IC50 ([3]; CBG99-luciferase assay, 48 h, read-out: IC50, early stage gametocytes) was over 40000 nM. For the same molecule, the IC50 ([3]; CBG99-luciferase assay, 48 h, read-out: IC50, late stage gametocytes) was over 40000 nM.
